# “Also recorded” adds a separate entry of the source.
# Columns and labels:
# [1] = target: ERα ligand binding domain (Homo sapiens (Human), UniProt P03372); test: Competitive [3H]-estradiol radioligand binding, ERα (Example 21)
# [2] = test system: high fat diet fed obese mice; test: High fat diet induced obesity model, treatment study (study 3); assay type: in vivo, C57BL6 male mice; conditions: high fat diet 6 weeks, then 30 mg/kg/day s.c.
# Procedure: For the treatment obesity study (where the animals were fed with high fat diet for six weeks prior to beginning drug treatment for 18 weeks), MRI scans were performed at weeks 0, 6, 12, 18 and 24.
# As the first two studies were designed to prevent obesity (i.e. animals were fed with a high fat diet and treated simultaneously), a subsequent study was conducted to evaluate the ability of 12u to affect body composition in mice that were already fed with the high fat diet and were obese. Mice were divided into three groups with one group fed with normal diet (control) and the other two groups fed with the high fat diet for 6 weeks. […] All the animals were maintained in their respective diets during the entire course of the study.
# [3] = test system: ovariectomized mice; test: Ovariectomy-induced obesity model (postmenopausal obesity); assay type: in vivo, female C57BL6 mice; conditions: OVX mice
# Procedure: For the ovariectomy-induced obesity model, 6 week old female C57BL6 mice were sham operated or ovariectomized and the study was carried out for 9 weeks as indicated above.
# Since it was shown that β-SERMs affected body composition in an animal model of high fat diet-induced obesity, they might also be effective in an animal model of postmenopausal obesity.
# [4] = test system: PPAR-γ; test: PPAR-γ transactivation (PPRE-LUC) in HEK-293 cells co-transfected with ER-β; assay type: cell-based; conditions: FIG. 12A left panel
# Procedure: FIG. 12 depict the effect of ER-β ligand on PPAR-γ function through ligand binding domain (LBD). (A). HEK-293 cells were transfected with 0.25 μg PPRE-LUC, 5 ng CMV-renilla LUC and the indicated receptors (PPAR-γ and ER-β for the left panel and PPAR-α and ER-β for the right panel). The cells were treated 24 hrs after transfection with the indicated ligands and harvested 48 hrs after transfection and firefly luciferase activity was measured and normalized to renilla luciferase. (B). H475 in ER-β LBD is important for its function. H475 in ER-β LBD was mutated to alanine (A) using a site directed mutagenesis kit. Transactivation assay was performed as described in panel A in HEK-293 cells with a titration of ER-β ligands in wild type or ER-β H475A. (C). […] The cells were treated 24 hrs after transfection with the indicated ligands and harvested 48 hrs after transfection and firefly luciferase activity was measured and normalized to renilla luciferase. […] The cells were treated 24 hrs after transfection with the indicated ligands and harvested 48 hrs after transfection and firefly luciferase activity was measured and normalized to renilla luciferase. […] The cells were treated 24 hrs after transfection with the indicated ligands and harvested 48 hrs after transfection and firefly luciferase activity was measured and normalized to renilla luciferase. […]
# [5] = test system: LNCaP cells and human prostate stromal cells xenograft; test: LNCaP-stromal cell xenograft tumor growth; assay type: in vivo, nude mice; conditions: 30 mg/kg/day for 21 days, by day 21
# Procedure: Prostate tumor xenografts were established with LNCaP cells and human prostate stromal cells in nude mice to establish the in vivo anti-proliferative effects of these ER-β NRBAs. A 4:1 ratio (based on cell number) of LNCaP:stroma cells was injected subcutaneously in nude mice and allowed to grow until they attained 100 mm^3 in volume, as measured by calipers. […] Tumor volumes were measured twice a week and percent tumor volume calculated, after 10, 14 and 21 days.
# [6] = test system: high fat diet fed C57BL6 mice; test: High fat diet induced obesity model, prevention studies (studies 1 and 2)
# Procedure: Study A: C57BL6 male mice of 4 weeks of age were divided into different groups and were fed with a normal or high fat diet (Harlan, Ind.).
# For the treatment study (study 3), the animals were maintained on the irrespective diets for 6 weeks and then treated daily as indicated for an additional 18 weeks. Biweekly body weights and food consumption were measured. The animals were sacrificed at the end of each study and blood and tissues were collected for RNA isolation, histology and protein estimation.
# Cholesterol and leptin concentrations were measured in serum using ELISA-based methods.
# Histology was performed on cryosections and stained with oil 0 red.
# Oral glucose tolerance tests (OGTT) were performed on 16-h fasted mice. Mice were given 150 mg glucose by oral gavage through a gastric tube.
# Six week old C57BL/6 mice were randomized, based on body weight, into three study groups as shown in the Study Parameters Table below.
# The mice were treated for 12 weeks. Twice weekly, the body weight and feed consumption were measured.
# A glucose tolerance test was also performed at the completion of the study by administering 150 mg glucose orally to the mice and measuring blood glucose levels at 0, 15, 30 and 60 minutes post glucose administration.
# At sacrifice, the mice organ weights were measured and collected for histology, gene expression and protein expressions. Blood was collected for serum marker determination (cholesterol, glucose, leptin).
# Dual energy X-ray absorptiometry (DEXA) was performed to measure the body composition in Study 1.
# An MRI scan was performed at the beginning of the study, after 6 weeks and at the completion of the study.
# [7] = test system: ARPE-19 cells; test: Fluorescent detection of intracellular ROS in ARPE-19 cells (tBH oxidative stress); conditions: 150 μM tBH, FIG. 20B
# [8] = high fat diet, 30 mg/kg/day s.c., 12 weeks, FIG. 7
# [9] = high fat diet, 30 mg/kg/day s.c., Study 2
# Sequence of ERα ligand binding domain (P03372 whole entry, looked up, species assumed, the tested form may be a part): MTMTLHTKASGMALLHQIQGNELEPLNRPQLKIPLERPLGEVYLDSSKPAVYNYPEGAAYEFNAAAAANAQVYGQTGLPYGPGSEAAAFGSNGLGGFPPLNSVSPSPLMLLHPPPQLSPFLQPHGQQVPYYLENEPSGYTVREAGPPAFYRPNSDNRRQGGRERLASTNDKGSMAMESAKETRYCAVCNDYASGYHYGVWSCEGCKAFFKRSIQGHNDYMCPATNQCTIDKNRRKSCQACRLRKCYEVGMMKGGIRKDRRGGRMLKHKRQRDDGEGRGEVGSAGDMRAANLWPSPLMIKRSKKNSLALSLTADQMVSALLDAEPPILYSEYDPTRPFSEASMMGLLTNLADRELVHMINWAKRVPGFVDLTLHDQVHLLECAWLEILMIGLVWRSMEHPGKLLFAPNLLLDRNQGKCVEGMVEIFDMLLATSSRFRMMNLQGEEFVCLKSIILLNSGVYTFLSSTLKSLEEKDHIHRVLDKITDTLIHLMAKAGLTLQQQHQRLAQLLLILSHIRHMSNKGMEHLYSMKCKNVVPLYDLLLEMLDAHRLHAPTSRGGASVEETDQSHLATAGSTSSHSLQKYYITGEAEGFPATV
smiles,measurement,setting,value
"O=c1c2c(O)cc(O)cc2c(Br)cn1-c1ccc(O)cc1 [Compound 12u, 4-bromo-6,8-dihydroxy-2-(4-hydroxyphenyl)isoquinolin-1(2H)-one]",Ki,[1],32 nM
same,body weight,[2]; FIG. 10A,prevented further gains in body weight
same,body fat increase (MRI),[2]; FIG. 10B,reduced
same,body weight gain,"[3]; 9 weeks, FIG. 11A",did not inhibit body weight gain
same,feed consumption,[3]; FIG. 11B,increased the feed consumption
same,fat mass (MRI),[3]; FIG. 11C left panel,completely prevented the increase in fat mass
same,lean mass (MRI),[3]; FIG. 11C right panel,significantly increased lean mass
same,WAT weight,[3]; FIG. 11D,completely inhibited the WAT accrued due to OVX
same,uterine weight,[3]; FIG. 11D,without affecting uterine weight
same,troglitazone-induced PPAR-γ activity,[4],partially inhibited
same,tumor growth (percent tumor volume),[5],inhibited the growth of tumor significantly
same,prevention of body weight increase caused by the high fat diet,"[6]; 30 mg/kg/day s.c., 12 weeks, Study 2",more than 50%
same,gastrocnemius muscle weight,[6]; [8],increased gastrocnemius muscle weight
same,white adipose tissue (WAT) weight,[6]; [8],prevented the increase in the WAT weight; also recorded: comparably decreased WAT weight
same,fat mass (MRI),[6]; [9],reduce fat mass
same,lean mass (MRI),[6]; [9],increase muscle mass; also recorded: increased the lean mass
same,prevention of the increase in body fat (MRI),[6]; [9],more than 50%
same,testes weights,"[6]; high fat diet, 12 weeks, FIG. 9A",not altered
same,serum testosterone levels,"[6]; high fat diet, 12 weeks, FIG. 9B",did not affect; also recorded: not altered
same,serum follicle stimulating hormone (FSH),"[6]; high fat diet, 12 weeks, FIG. 9C",not altered
same,prevention of ROS formation / oxidative damage,[7],did not seem to have any effect

# Reference: patent US9623021B2, “Nuclear receptor binding agents” (GTX, Inc., priority 2007, dated 2017)
